Literature values, collected in US20260256788A1, “COMPOSITIONS COMPRISING MELATONIN, 5-FLUOROURACIL AND DIMETHYL SULFOXIDE FOR USE IN THE TREATMENT OF ACTINIC KERATOSIS” (RepoCeuticals A/S, priority 2023, published 2026).

Legend:
[1] = not given; remark: listed apart in the source

Row | solubility in DMSO (in DMSO) | solubility in water [1] | solubility of melatonin in DMSO (in DMSO at room temperature) | Compound
1 | very soluble | only sparingly soluble |  | O=c1[nH]cc(F)c(=O)[nH]1 [5-FU, 5-fluoro-2,4(1H;3H)-pyrimidinedione]
2 |  |  | ≥ 232 mg/mL | COc1ccc2[nH]cc(CCNC(C)=O)c2c1 [melatonin, N-acetyl-5-methoxytryptamine]
